Here are results for 8 compounds from PubChem BioAssay (NCI).

Some test systems named below: NCI-H460 lung; U251 CNS; HCT-116 colon; OVCAR-4 ovarian; UACC-257 melanoma; SNB-19 CNS; RXF 393 renal; HCT-15 colon; SNB-75 CNS; KM12 colon; A498 renal; MALME-3M melanoma; LOX IMVI melanoma; MCF7 breast; HL-60(TB) leukemia; SK-MEL-28 melanoma; MOLT-4 leukemia.
Test in all cases: inhibition of tumour cell growth, NCI panel, 48 h

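Five concentrations, 48 hours, 96-well plates. GI50 = concentration required for 50% inhibition of growth. TGI is the concentration that stops growth completely.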

Regarding `CCCCOP(C)(=O)C(NC(=O)OCC)(C(F)(F)F)C(F)(F)F` (centres undefined), the TGI in the test with NCI-H460 lung, in the test with U251 CNS, in the test on HCT-116 colon, in the test with OVCAR-4 ovarian, in the test with UACC-257 melanoma and in the test on SNB-19 CNS was greater than 100 µM each time. The TGI in the test with RXF 393 renal, in the test on HCT-15 colon, in the test on SNB-75 CNS, with KM12 colon, with A498 renal and in the test with MALME-3M melanoma was greater than 100 µM in each case. The TGI in the test on LOX IMVI melanoma, in the test with MCF7 breast, in the test on HL-60(TB) leukemia, in the test on SK-MEL-28 melanoma and in the test with MOLT-4 leukemia was greater than 100 µM each time.
With `CC(C)c1ccccc1SCc1cc(=O)cc(CSc2ccccc2C(C)C)o1`, the TGI in the test on NCI-H460 lung is 69.7 µM; in the test on U251 CNS it was 86.8 µM; with OVCAR-4 ovarian it was 46.9 µM; in the test with UACC-257 melanoma it was 51 µM; in the test with SNB-19 CNS, greater than 100 µM; in the test on RXF 393 renal, greater than 100 µM. The TGI in the test on HCT-15 colon was 94.3 µM; with SNB-75 CNS it was 36.5 µM; with KM12 colon, 32.9 µM; in the test with A498 renal, 40.9 µM; in the test on MALME-3M melanoma it was 44.4 µM; in the test with LOX IMVI melanoma it was 84.4 µM. Moreover, the TGI was 57.5 µM in the test with MCF7 breast, 82 µM with HL-60(TB) leukemia, 57.8 µM in the test on SK-MEL-28 melanoma and 93.3 µM with MOLT-4 leukemia.
Turning to `C=C=CC(NC(=O)c1ccccc1)(C(=O)O)C(F)(F)F` (centres undefined), the TGI in the test with NCI-H460 lung, in the test with U251 CNS, in the test on HCT-116 colon, in the test with UACC-257 melanoma, with SNB-19 CNS and in the test on RXF 393 renal was greater than 100 µM throughout. Moreover, the TGI in the test with HCT-15 colon, in the test on SNB-75 CNS, in the test on KM12 colon, in the test with A498 renal, with MALME-3M melanoma and with LOX IMVI melanoma was greater than 100 µM throughout. Besides, the TGI with HL-60(TB) leukemia, in the test with SK-MEL-28 melanoma and in the test with MOLT-4 leukemia was greater than 100 µM in each case.
Turning to `Cc1cccc(N2C(=O)C3c4[nH]c5ccc(C)cc5c4C4CCC(C(C)(C)C)CC4C3C2=O)c1` (centres undefined), the TGI with NCI-H460 lung was 36.3 µM; in the test with U251 CNS, 62.3 µM; with OVCAR-4 ovarian, greater than 100 µM; in the test on UACC-257 melanoma, greater than 100 µM; with SNB-19 CNS it was greater than 100 µM; in the test with HCT-15 colon, greater than 100 µM. For the same compound, the TGI in the test on KM12 colon is 38 µM; in the test with MALME-3M melanoma, 71.2 µM; in the test with LOX IMVI melanoma, 43.7 µM; in the test with HL-60(TB) leukemia it was 40.3 µM; in the test on SK-MEL-28 melanoma it was greater than 100 µM; in the test with MOLT-4 leukemia, 29.7 µM.
As for `CC12CCC(CC1)C(C)(C)O2`, the GI50 in the test on NCI-H460 lung is 1240 nM; in the test on HCT-116 colon it was 12.6 µM; with SNB-19 CNS, 20.8 µM. In addition, the TGI turned out to be 12.3 µM in the test with NCI-H460 lung; 112 µM with U251 CNS; 81.3 µM with HCT-116 colon; 129 µM in the test on OVCAR-4 ovarian; 73.7 µM with UACC-257 melanoma; 103 µM in the test with SNB-19 CNS. Also, the TGI in the test with RXF 393 renal worked out at 56.9 µM; in the test with HCT-15 colon it was 71.8 µM; in the test on SNB-75 CNS, 115 µM; in the test with KM12 colon, 118 µM; with A498 renal it was 99.6 µM; in the test with MALME-3M melanoma, 122 µM. Moreover, the TGI was 48.7 µM with LOX IMVI melanoma; 27.9 µM in the test on MCF7 breast; greater than 93.9 µM in the test with HL-60(TB) leukemia; 131 µM in the test with SK-MEL-28 melanoma; 77.2 µM in the test with MOLT-4 leukemia.
In the case of `CSc1nc(N)c2c(-c3ccccc3)c3c(nc2n1)CCCC3`, the TGI with NCI-H460 lung, with U251 CNS, in the test on HCT-116 colon, in the test with OVCAR-4 ovarian, in the test on UACC-257 melanoma and in the test with SNB-19 CNS was greater than 100 µM in each case. For the same compound, the TGI in the test on RXF 393 renal was 94.2 µM; with HCT-15 colon it was greater than 100 µM; in the test on SNB-75 CNS it was greater than 100 µM; in the test on KM12 colon it was greater than 100 µM; in the test with MALME-3M melanoma, greater than 100 µM; in the test with LOX IMVI melanoma, greater than 100 µM. The TGI with MCF7 breast, in the test on HL-60(TB) leukemia, with SK-MEL-28 melanoma and with MOLT-4 leukemia was greater than 100 µM throughout.
For `C=C1C(=O)OC2CC(C)C3C4OC4C(O)C3(C)C(O)C12` (centres undefined), the TGI in the test on NCI-H460 lung stood at 62.9 µM; in the test on U251 CNS, 96.6 µM; in the test on HCT-116 colon, 55.6 µM; with OVCAR-4 ovarian, 59.7 µM; with UACC-257 melanoma, 104 µM; in the test on SNB-19 CNS it was 102 µM. The TGI came to 53.7 µM with RXF 393 renal; 77.6 µM with HCT-15 colon; 92.1 µM with SNB-75 CNS; 71.1 µM in the test on KM12 colon; 44.4 µM with A498 renal; 67.1 µM with MALME-3M melanoma. Further, the TGI in the test with LOX IMVI melanoma was 65.3 µM; with MCF7 breast it was 66.7 µM; with HL-60(TB) leukemia, greater than 51.6 µM; in the test on SK-MEL-28 melanoma, 71.2 µM; in the test with MOLT-4 leukemia it was 41.8 µM.
As to `COc1ccc(-c2c(-c3ccccc3)c(C)nc3nc(SC)nc(SC)c23)cc1OC`, the TGI is 16.2 µM in the test with NCI-H460 lung; 28.3 µM in the test with U251 CNS; 32.2 µM in the test with HCT-116 colon; greater than 100 µM in the test with UACC-257 melanoma; greater than 100 µM with SNB-19 CNS; greater than 100 µM with RXF 393 renal. Besides, the TGI with HCT-15 colon was greater than 100 µM; in the test on SNB-75 CNS, greater than 100 µM; in the test on KM12 colon, greater than 100 µM; in the test on A498 renal it was 56.9 µM; in the test with MALME-3M melanoma, 38.5 µM; in the test with LOX IMVI melanoma it was 33.2 µM. Also, the TGI in the test with MCF7 breast is greater than 100 µM; in the test with HL-60(TB) leukemia, 8.49 µM; with SK-MEL-28 melanoma, greater than 100 µM; with MOLT-4 leukemia it was 71.3 µM.
